Data taken from patent publication US11938115B2, “Benzoselenophene-based compound, pharmaceutical composition containing same, and antibody-drug conjugate” (priority 2020, dated 2024).
Non-standard residues stand in square brackets, D forms with d. Residues, ends and D or L forms follow the SMILES beside them. *: point of attachment. Dolaproine = CO[C@@H]([C@@H]1CCCN1)[C@@H](C)C(=O)O; Dil = CC[C@H](C)[C@H](NC)[C@@H](CC(=O)O)OC; X1 = C[C@@H](N*)[C@@H](O)c1ccccc1; NMeV = CN[C@H](C(=O)O)C(C)C

How the values were obtained:
[1] = tested on: GBM#2 (Glioblastoma, PDC); test: High-throughput screening, cell viability, GBM#2; type: cell-based; conditions: seven days after drug treatment
Description: (§1) FIG. 11A, FIG. 11B and FIG. 11C show data confirming the cell viability inhibitory effect of seven types of payloads except Compound 3 (DS-24) on the glioblastoma cell line U87MG, the multiple myeloma cell line KMS11, and the bladder cancer cell line RT112, respectively. Also, FIG. 12A, FIG. 12B, FIG. 12C, FIG. 12D, FIG. 12E and FIG. 12F show data confirming the cell viability inhibitory effect of seven types of payloads except Compound 3 (DS-24) on 6 types of cells derived from a patient with glioblastoma, respectively.
(§2) After treatment with the drug diluted to 14 different concentrations based on 20 μM as the highest concentration, it was verified whether the effect is proportional depending on the drug concentration through the concentration graph for two repeated tests. The cell viability was analyzed seven days after drug treatment to calculate IC50 that inhibits 50% of the cell viability.

[2] = tested on: GBM#4 (Glioblastoma, PDC); test: High-throughput screening, cell viability, GBM#4; type: cell-based; conditions: seven days after drug treatment
Description: as §1, §2

[3] = tested on: B16F10 (Murine melanoma Cell line); test: In vivo activity, B16F10 tumor volume; parameters: species or system mouse; conditions: 5 ug/kg, 50 ug/kg, 100 ug/kg, IV, twice a week
[4] = tested on: human ovarian cancer cells SK-OV3; test: Cell growth inhibition assay (ATPlite), SK-OV3; type: cell-based; parameters: unit not given beside the values; conditions: 3 days of incubation
Description: (§3) Her2-positive human gastric cancer cells NCI-N87 and human ovarian cancer cells SK-OV3 purchased from the American Type Culture Collection (ATCC; Manassas, VA, USA) were seeded into a 384-well plate at 500 cells per well. After plating for 2 hours, the cells were treated in quadruplicate with toxins in 5-fold and 14-point serial dilution series. After 3 days of incubation at 37° C. in a 5% CO2 humidified incubator, cell viability was checked using an adenosine triphosphate monitoring system based on firefly luciferase (ATPlite™ 1step, PerkinElmer, MA, USA). IC50 values were calculated as an average of four quadruplicated tests (GraphPad Prism 5.0, CA, and USA). FIG. 13A and FIG. 13B are graphs showing the cell viability of NCI-N87 depending on the concentrations of DS-24 and DS-26, respectively, and FIG. 14A and FIG. 14B are graphs showing the cell viability of SK-OV3 depending on the concentrations of DS-24 and DS-26, respectively.

NCI cell lines = test: In vitro cell line activity, NCI NTP program; type: cell-based
Description: The activity of Compound 3 was checked by requesting a sample to the NCI NTP program.
Based on the results shown in FIG. 6, it was analyzed whether there was any statistical significance in the reactivity depending on cancer types in the cell lines for which the anticancer effect was confirmed by the NCI NTP program.

[5] = tested on: GBM#1 (Glioblastoma, PDC); test: High-throughput screening, cell viability, GBM#1; type: cell-based; conditions: seven days after drug treatment
Description: as §1, §2

[6] = tested on: cell lines and cells derived from a patient with glioblastoma; test: High-throughput screening, comparison of payloads across cell lines and brain tumor patient-derived cells; type: cell-based; conditions: for cell viability inhibitory effect compared with the other payloads: all cells; for cell viability inhibitory effect on cells derived from a patient with glioblastoma compared to KMS11 and RT112: comparison between cells
Description: as §1, §2

[7] = tested on: multiple myeloma cell line KMS11; test: High-throughput screening, cell viability, KMS11; type: cell-based; conditions: seven days after drug treatment
Description: as §1, §2

[8] = tested on: Her2-positive human gastric cancer cells NCI-N87; test: Cell growth inhibition assay (ATPlite), NCI-N87; type: cell-based; parameters: unit not given beside the values; conditions: 3 days of incubation
Description: as §3

[9] = tested on: GBM#3 (Glioblastoma, PDC); test: High-throughput screening, cell viability, GBM#3; type: cell-based; conditions: seven days after drug treatment
Description: as §1, §2

[10] = tested on: glioblastoma cell line U87MG; test: High-throughput screening, cell viability, U87MG; type: cell-based; conditions: seven days after drug treatment
Description: as §1, §2

[11] = tested on: bladder cancer cell line RT112; test: High-throughput screening, cell viability, RT112; type: cell-based; conditions: seven days after drug treatment
Description: as §1, §2

[12] = Hydrophobic interaction chromatography (HIC) analysis; type: physicochemical; conditions: inferred from HIC, DAR species appear as one

SMILES	IC50 [1] [nM]	IC50 [2] [nM]	IC50 [5] [nM]	cell viability inhibitory effect on cells derived from a patient with glioblastoma compared to KMS11 and RT112 [6]	IC50 [7] [nM]	IC50 [10] [nM]	IC50 [11] [nM]	also measured
COc1ccc2c(O)cc3c(c2c1)[C@H](CCl)CN3C(=O)c1cc2cc(NC(=O)CCN3CCOCC3)ccc2[se]1 [Compound 3, (S)—N-(2-(1-(chloromethyl)-5-hydroxy-8-methoxy-2,3-dihydro-1H-benzo[e]indole-3-carbonyl)benzo[b]selenophen-5-yl)-3-morpholinopropanamide]	–	–	–	–	–	–	–	IC50 ([1]; GBM2, 168 h): 0.0264 nM; IC50 ([2]; 168 h): 0.215 nM; in vivo activity (tumor volume) [3]: in vivo activity even at a very low concentration; AUC (area under the curve), SK-OV3 [4]: 160; TGI, sensitivity difference between cancer types (NCI cell lines; non-small cell lung cancer, CNS cancer and melanoma compared to leukemia): tumor growth inhibition effect; activity by cancer type (NCI cell lines; non-small lung cancer, CNS cancer, melanoma, renal cancer): remarkably strong activity; GI50 (Growth Inhibition 50%) (NCI cell lines; several cell lines): pM or less; IC50 ([5]; GBM1, 168 h): 0.98 nM; cell viability inhibitory effect compared with the other payloads [6]: highest cell viability inhibitory effect among the compared materials; IC50 ([7]; Homo sapiens, KMS-11, 168 h): 0.0122 nM; AUC (area under the curve), NCI-N87 [8]: 277; IC50 ([9]; GBM3, 168 h): 0.0313 nM; IC50 ([10]; Homo sapiens, U-87 MG, 168 h): 0.0339 nM; IC50 ([11]; Homo sapiens, RT-112, 168 h): 0.00837 nM
COc1ccc2c(OC(=O)N(CCN(C)C(=O)OCc3ccc(O[C@@H]4O[C@@H](C(=O)O)[C@H](OC(C)=O)[C@@H](OC(C)=O)[C@@H]4OC(C)=O)cc3)Cc3cn(CCOCCOCCOCCNC(=O)CCN4C(=O)C=CC4=O)nn3)cc3c(c2c1)[C@H](CCl)CN3C(=O)c1cc2cc(NC(=O)CCN3CCOCC3)ccc2[se]1 [Compound 3-3, (2R,3R,4R,5S,6S)-3,4,5-triacetoxy-6-(4-((((2-(((((S)-1-(chloromethyl)-8-methoxy-3-(5-(3-morpholinopropanamido)benzo[b]selenophene-2-carbonyl)-2,3-dihydro-1H-benzo[e]indol-5-yl)oxy)carbonyl)((1-(15-(2,5-dioxo-2,5-dihydro-1H-pyrrol-1-yl)-13-oxo-3,6,9-trioxa-12-azapentadecyl)-1H-1,2,3-triazol-4-yl)methyl)amino)ethyl)(methyl)carbamoyl)oxy)methyl)phenoxy)tetrahydro-2H-pyran-2-carboxylic Acid]	–	–	–	–	–	–	–	polarity and water solubility [12]: very high polarity and a good water solubility
COc1cc2cc(c1Cl)N(C)C(=O)C[C@H](OC(=O)[C@H](C)N(C)C(=O)CCS)[C@]1(C)O[C@H]1[C@H](C)[C@@H]1C[C@@](O)(NC(=O)O1)[C@H](OC)/C=C/C=C(\C)C2 [DM1]	95.9	92.1	133	remarkable decrease in the cell viability inhibitory effect	0.0441	13.3	0.0431	–
COc1cc2cc(c1Cl)N(C)C(=O)C[C@H](OC(=O)[C@H](C)N(C)C(=O)CCC(C)(C)S)[C@]1(C)O[C@H]1[C@H](C)[C@@H]1C[C@@](O)(NC(=O)O1)[C@H](OC)/C=C/C=C(\C)C2 [DM4]	53.1	8.15	29.8	remarkable decrease in the cell viability inhibitory effect	0.0229	1.51	0.0202	–
CC[C@H](C)[C@@H]([C@@H](CC(=O)N1CCC[C@H]1[C@H](OC)[C@@H](C)C(=O)N[C@H](C)[C@@H](O)c1ccccc1)OC)N(C)C(=O)[C@@H](NC(=O)[C@@H](NC)C(C)C)C(C)C [MMAE] (H-[NMeV]V[Dil][Dolaproine]-X1)	15	53.3	51.6	remarkable decrease in the cell viability inhibitory effect	0.153	3.39	0.259	–
CC[C@H](C)[C@@H]([C@@H](CC(=O)N1CCC[C@H]1[C@H](OC)[C@@H](C)C(=O)N[C@@H](Cc1ccccc1)C(=O)O)OC)N(C)C(=O)[C@@H](NC(=O)[C@@H](NC)C(C)C)C(C)C [MMAF] (HELM PEPTIDE1{[meV].V.[CC[C@H](C)[C@@H]([C@@H](CC(=O)[*:2])OC)N(C)[*:1]].[CO[C@H]([C@@H](C)C(=O)[*:2])[C@@H]1CCCN1[*:1]].F}$$$$V2.0)	1360	8860	16900	remarkable decrease in the cell viability inhibitory effect	91.4	353	112	IC50 [9]: 31100 nM
CCc1c2c(nc3ccc(O)cc13)-c1cc3c(c(=O)n1C2)COC(=O)[C@]3(O)CC [SN-38]	97	146	128	–	169	67.8	15.6	cell viability inhibitory effect compared with the other payloads [6]: lower cell viability inhibitory effect than the other payloads; IC50 [9]: 131 nM
